Results as given in ChEMBL document CHEMBL5523769, “Discovery of Novel Nonpeptidic and Noncovalent Small Molecule 3CLpro Inhibitors as anti-SARS-CoV-2 Drug Candidate” (J Med Chem, 2024).
pIC50, pKd: −log10 of the molar value.

Experiments:
[1] = biological target: T1, Caspase-3 (Homo sapiens, UniProt P42574); assay: Inhibition of human Caspase-3 activity using Ac-DEVD-pNA as substrate incubated for 5 mins by FRET-enzymatic assay
T1 sequence (P42574 whole entry): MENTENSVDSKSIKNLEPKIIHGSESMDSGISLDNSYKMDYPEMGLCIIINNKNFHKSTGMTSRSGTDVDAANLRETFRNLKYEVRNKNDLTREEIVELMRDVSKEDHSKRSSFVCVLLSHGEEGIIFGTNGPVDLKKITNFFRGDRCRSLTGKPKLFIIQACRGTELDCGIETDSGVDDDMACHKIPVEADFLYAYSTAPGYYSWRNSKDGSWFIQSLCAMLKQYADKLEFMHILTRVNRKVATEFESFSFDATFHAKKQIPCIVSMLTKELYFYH

[2] = biological target: Cathepsin B (Homo sapiens, UniProt P07858); assay: Inhibition of human Cathepsin B using CBZ-Arg-Arg-AMC as substrate incubated for 10 mins by FRET-enzymatic assay
[3] = Cmax in ICR mouse at 20 mg/kg, po; type: ADME, organism-based; details: in vivo
[4] = biological target: Cathepsin D (Homo sapiens, UniProt P07339); assay: Inhibition of human Cathepsin D using MCA-PLGL-Dap(Dnp)-AR-NH2 as substrate incubated for 10 mins by FRET-enzymatic assay
Sequence of Cathepsin D (P07339 65-162 limits assumed): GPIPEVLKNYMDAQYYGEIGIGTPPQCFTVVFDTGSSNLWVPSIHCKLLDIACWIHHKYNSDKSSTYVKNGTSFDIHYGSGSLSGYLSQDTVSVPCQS
Sequence of Cathepsin D (P07339 169-412 limits assumed): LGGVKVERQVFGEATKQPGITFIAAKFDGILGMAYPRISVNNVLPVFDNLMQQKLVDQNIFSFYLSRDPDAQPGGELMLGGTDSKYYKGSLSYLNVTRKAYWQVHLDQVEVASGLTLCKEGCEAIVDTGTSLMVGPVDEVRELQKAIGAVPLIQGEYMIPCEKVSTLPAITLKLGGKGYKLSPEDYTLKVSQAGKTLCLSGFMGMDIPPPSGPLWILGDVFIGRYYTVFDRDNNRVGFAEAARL

[5] = Cytotoxicity against African green monkey Vero E6 cells incubated for 24 hrs by CCK8 assay; type: toxicity, cell-based, Vero C1008; details: chlorocebus sabaeus
[6] = Half-life in ICR mouse at 20 mg/kg, po; type: ADME, organism-based; details: in vivo
[7] = biological target: Prothrombin (Homo sapiens, UniProt P00734); assay: Inhibition of human thrombin using benzoyl-FVR-AMC as substrate incubated for 10 mins by FRET-enzymatic assay
[8] = biological target: Dipeptidyl peptidase 4 (Homo sapiens, UniProt P27487); assay: Inhibition of human DPP-4 using Gly-Pro-AMC as substrate incubated for 10 mins by FRET-enzymatic assay
Sequence of Dipeptidyl peptidase 4 (P27487 whole entry): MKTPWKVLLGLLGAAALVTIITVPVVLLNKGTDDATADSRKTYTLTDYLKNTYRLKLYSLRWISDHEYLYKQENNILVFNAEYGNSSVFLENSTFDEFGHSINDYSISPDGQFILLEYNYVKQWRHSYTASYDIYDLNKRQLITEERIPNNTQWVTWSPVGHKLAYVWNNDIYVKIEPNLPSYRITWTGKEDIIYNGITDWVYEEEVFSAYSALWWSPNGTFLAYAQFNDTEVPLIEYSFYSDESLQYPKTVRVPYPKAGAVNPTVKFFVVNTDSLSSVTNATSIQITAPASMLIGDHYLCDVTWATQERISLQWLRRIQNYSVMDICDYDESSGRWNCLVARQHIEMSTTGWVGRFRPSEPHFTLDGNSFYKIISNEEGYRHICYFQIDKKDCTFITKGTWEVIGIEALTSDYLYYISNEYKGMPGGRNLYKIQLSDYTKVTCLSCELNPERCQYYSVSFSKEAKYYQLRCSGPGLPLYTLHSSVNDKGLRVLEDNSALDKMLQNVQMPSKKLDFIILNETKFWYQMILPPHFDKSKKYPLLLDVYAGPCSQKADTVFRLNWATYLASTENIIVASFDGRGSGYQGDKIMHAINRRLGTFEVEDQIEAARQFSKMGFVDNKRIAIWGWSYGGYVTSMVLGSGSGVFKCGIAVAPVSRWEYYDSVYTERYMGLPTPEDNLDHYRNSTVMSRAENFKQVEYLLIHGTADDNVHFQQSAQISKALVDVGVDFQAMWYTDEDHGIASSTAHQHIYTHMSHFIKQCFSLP

[9] = biological target: 3C-like protease (Infectious bronchitis virus, UniProt Q3Y5H1); assay: Inhibition of Infectious bronchitis virus 3CLpro by FRET-enzymatic assay
Sequence of 3C-like protease (Q3Y5H1 whole entry): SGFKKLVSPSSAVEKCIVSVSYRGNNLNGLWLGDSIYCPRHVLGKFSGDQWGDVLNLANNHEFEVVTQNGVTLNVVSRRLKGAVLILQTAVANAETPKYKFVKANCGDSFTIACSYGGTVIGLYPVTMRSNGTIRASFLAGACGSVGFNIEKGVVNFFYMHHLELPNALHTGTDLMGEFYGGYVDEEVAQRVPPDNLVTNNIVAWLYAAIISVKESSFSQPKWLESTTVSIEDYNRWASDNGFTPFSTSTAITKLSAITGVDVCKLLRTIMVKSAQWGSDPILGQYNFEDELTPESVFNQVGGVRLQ

[10] = Inhibition of Bat coronavirus HKU9 3CLpro by FRET-enzymatic assay; set-up: species or system Rousettus bat coronavirus HKU9
[11] = biological target: T2, Replicase polyprotein 1ab (Severe acute respiratory syndrome coronavirus 2, UniProt P0DTD1)
[12] = Inhibition of Bat coronavirus WIV-1 3CLpro by FRET-enzymatic assay
[13] = AUC (0 to infinity) in ICR mouse at 20 mg/kg, po; type: ADME, organism-based; details: in vivo
[14] = biological target: Replicase polyprotein 1ab (Severe acute respiratory syndrome coronavirus 2) (UniProt P0DTD1); details: dose 31.25-1000 nM, time 100.0 sec
[15] = biological target: T2, Replicase polyprotein 1ab; remark: listed apart in the source
[16] = Observed MRT (0 to infinity) in ICR mouse at 20 mg/kg, po; type: ADME, organism-based; details: in vivo
[17] = test system: Proteasome; type: subcellular, Homo sapiens
[18] = Tmax in ICR mouse at 20 mg/kg, po; type: ADME, organism-based; details: in vivo
[19] = biological target: Trypsin (Homo sapiens, UniProt P07477+P07478+P35030); assay: Inhibition of human trypsin using CBZ-Arg-Arg-AMC as substrate incubated for 10 mins by FRET-enzymatic assay; type: protein assay
[20] = Acute toxicity in mouse assessed as body weight change at 500 mg/kg, po administered twice a day for 5 days; type: organism-based; details: in vivo, 120 h, time 5 day
[21] = biological target: Replicase polyprotein 1ab (Severe acute respiratory syndrome coronavirus 2) (UniProt P0DTD1); details: dose 31.25-1000 nM, time 100.0 sec; remark: listed apart in the source
[22] = biological target: T3, Cathepsin K (Homo sapiens, UniProt P43235); assay: Inhibition of human Cathepsin K using Z-Phe-Arg-AMC as substrate incubated for 10 mins by FRET-enzymatic assay
T3 sequence (P43235 whole entry): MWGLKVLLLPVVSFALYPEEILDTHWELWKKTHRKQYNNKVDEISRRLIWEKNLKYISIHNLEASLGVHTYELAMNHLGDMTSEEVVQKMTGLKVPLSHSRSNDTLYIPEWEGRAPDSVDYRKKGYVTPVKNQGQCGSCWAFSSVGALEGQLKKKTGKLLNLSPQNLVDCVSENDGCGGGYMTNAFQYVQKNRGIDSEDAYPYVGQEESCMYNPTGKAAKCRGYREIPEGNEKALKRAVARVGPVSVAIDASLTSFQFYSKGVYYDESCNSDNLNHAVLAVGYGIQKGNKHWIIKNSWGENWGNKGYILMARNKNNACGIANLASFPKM

[23] = AUClast in ICR mouse at 20 mg/kg, po; type: ADME, organism-based; details: in vivo
[24] = Acute toxicity in mouse assessed as animal death at 500 mg/kg, po administered twice a day for 5 days; type: organism-based; details: in vivo, 120 h, time 5 day
[25] = Acute toxicity in mouse at 500 mg/kg, po administered twice a day for 5 days; type: organism-based; details: in vivo, 120 h, time 5 day
[26] = Inhibition of MERS-CoV 3CLpro by FRET-enzymatic assay; set-up: species or system Middle East respiratory syndrome-related coronavirus
[27] = Inhibition of porcine delta coronavirus 3CLpro by FRET-enzymatic assay; set-up: species or system Porcine deltacoronavirus
[28] = Inhibition of HCov-OC43 3CLpro by FRET-enzymatic assay; set-up: species or system Human coronavirus OC43
[29] = biological target: Procathepsin L (Homo sapiens, UniProt P07711); assay: Inhibition of human Cathepsin L using Z-Phe-Arg-AMC as substrate incubated for 10 mins by FRET-enzymatic assay
Sequence of Procathepsin L (P07711 whole entry): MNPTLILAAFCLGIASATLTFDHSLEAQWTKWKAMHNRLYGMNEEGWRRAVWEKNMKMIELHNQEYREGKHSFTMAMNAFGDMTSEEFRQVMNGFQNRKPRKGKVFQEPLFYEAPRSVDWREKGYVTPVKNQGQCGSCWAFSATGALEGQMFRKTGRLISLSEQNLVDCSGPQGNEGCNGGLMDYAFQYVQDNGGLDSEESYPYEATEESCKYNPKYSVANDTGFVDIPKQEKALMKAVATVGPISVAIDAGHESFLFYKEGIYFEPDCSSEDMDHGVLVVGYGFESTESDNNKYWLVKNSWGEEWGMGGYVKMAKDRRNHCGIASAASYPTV

[30] = biological target: Replicase polyprotein 1ab (Human coronavirus 229E, UniProt P0C6X1); assay: Inhibition of HCov-229E 3CLpro by FRET-enzymatic assay
Sequence of Replicase polyprotein 1ab (Human coronavirus 229E, UniProt P0C6X1) (P0C6X1 2966-3267 limits assumed): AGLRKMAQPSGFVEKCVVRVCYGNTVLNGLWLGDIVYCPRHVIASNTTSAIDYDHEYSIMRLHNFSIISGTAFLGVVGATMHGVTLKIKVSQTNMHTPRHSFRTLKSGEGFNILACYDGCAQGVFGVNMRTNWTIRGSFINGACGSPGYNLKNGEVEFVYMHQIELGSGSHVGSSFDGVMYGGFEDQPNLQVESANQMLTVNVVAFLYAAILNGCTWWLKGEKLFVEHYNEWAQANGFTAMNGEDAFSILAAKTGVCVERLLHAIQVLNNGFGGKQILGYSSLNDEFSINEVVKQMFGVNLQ

[31] = biological target: T4, Calpain-1 catalytic subunit (Homo sapiens, UniProt P07384); assay: Inhibition of human Calpain 1 using N-Suc-Leu-Leu-Val-Tyr-7-AMC as substrate incubated for 10 mins by FRET-enzymatic assay
T4 sequence (P07384 whole entry): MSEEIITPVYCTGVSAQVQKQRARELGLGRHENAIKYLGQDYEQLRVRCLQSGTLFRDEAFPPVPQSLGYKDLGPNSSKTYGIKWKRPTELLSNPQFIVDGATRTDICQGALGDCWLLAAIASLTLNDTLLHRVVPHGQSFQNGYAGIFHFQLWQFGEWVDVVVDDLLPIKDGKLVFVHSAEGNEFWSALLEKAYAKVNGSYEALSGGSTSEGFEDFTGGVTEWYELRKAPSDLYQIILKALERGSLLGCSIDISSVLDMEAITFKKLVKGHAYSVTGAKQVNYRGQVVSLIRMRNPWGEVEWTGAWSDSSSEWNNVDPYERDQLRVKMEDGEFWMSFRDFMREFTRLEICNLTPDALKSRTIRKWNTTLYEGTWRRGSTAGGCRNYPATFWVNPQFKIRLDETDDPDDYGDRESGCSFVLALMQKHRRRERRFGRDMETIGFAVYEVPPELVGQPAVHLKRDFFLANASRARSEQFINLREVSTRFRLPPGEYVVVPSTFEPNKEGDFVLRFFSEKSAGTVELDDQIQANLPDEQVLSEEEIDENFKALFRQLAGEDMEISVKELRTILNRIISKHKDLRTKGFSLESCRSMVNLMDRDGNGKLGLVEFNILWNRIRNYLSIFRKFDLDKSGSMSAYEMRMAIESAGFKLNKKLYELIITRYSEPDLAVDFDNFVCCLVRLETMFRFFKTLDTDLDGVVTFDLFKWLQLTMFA

[32] = Inhibition of mouse hepatitis virus 3CLpro by FRET-enzymatic assay; set-up: species or system Murine hepatitis virus

## CN1CCN(C(=O)c2cc(Br)cc([N+](=O)[O-])c2N[C@@H]2CCCC[C@@H]2NC(=O)c2cc(=O)[nH]c3c(F)cccc23)CC1
[1]
  pIC50: < 4.00
[2]
  pIC50: < 4.00
[3]
  Cmax: 76.3 ng/mL
[4]
  pIC50: < 4.00
[5]
  CC50 at 24 h: > 200 µM
[6]
  half-life: 1.21 h
[7]
  pIC50: < 4.00
[8]
  pIC50: < 4.00
[9]
  pIC50: < 5.00
[10]
  pIC50: 6.40
[11]
  pIC50: 7.68
[12]
  pIC50: 7.07
[13]
  AUC(0-inf): 77.7 ng·h/mL
[14]
  K: 3.8 10^5/M/s
[15]
  pKd: 7.74
[16]
  MRT inf: 1.44 h
[17]
  pIC50: < 4.00
[18]
  Tmax: 3 min
[19]
  IC50: > 100 µM
[20]
  Activity: Non-Toxic
[21]
  K: 0.007 s⁻¹
[22]
  pIC50: < 4.00
[23]
  AUC(0-t): 70.6 ng·h/mL
[24]
  Activity: Non-Toxic
[25]
  Activity: Non-Toxic
[26]
  pIC50: 5.77
[27]
  pIC50: < 5.00
[28]
  pIC50: 6.03
[29]
  pIC50: < 4.00
[30]
  pIC50: 5.59
[31]
  pIC50: < 4.00
[32]
  pIC50: < 5.00
